Literature values in patent US10829440B2, “Antibacterial compounds and methods of making and using same” (Brown University, priority 2015, dated 2020).

Test system: LT
Conditions: cited from earlier work

CC1=N[C@@H]2[C@@H](O)[C@H](O)[C@@H](CO)O[C@@H]2S1 [NAG-thiazoline]
binding of LT: weak binder
